Measured values from US20090118274A1, “MONOCYCLIC AMINOPROPYL TETRAHYDRO-PYRAZOLO-PYRIDINE MODULATORS OF CATHEPSIN S” (priority 2007, published 2009).

Target: T1, Recombinant human cathepsin S (CatS) (Homo sapiens, UniProt P25774)
T1 construct: made in house
Assay: Recombinant human cathepsin S (CatS) fluorogenic substrate inhibition assay
Assay type: biochemical
Details: not given
Protocol: Recombinant human cathepsin S (CatS) was expressed in the baculovirus system and purified in one step with a thiopropyl-sepharose column. […] The assay is run in 150 mM sodium acetate pH 5.0 containing 1.5 mM DTT and 150 mM NaCl. […] Measurements are taken every min for 20 min. The rate is calculated from the slope of the increase in fluorescence and the percent inhibition is calculated from this.

T1 sequence (P25774 115-331): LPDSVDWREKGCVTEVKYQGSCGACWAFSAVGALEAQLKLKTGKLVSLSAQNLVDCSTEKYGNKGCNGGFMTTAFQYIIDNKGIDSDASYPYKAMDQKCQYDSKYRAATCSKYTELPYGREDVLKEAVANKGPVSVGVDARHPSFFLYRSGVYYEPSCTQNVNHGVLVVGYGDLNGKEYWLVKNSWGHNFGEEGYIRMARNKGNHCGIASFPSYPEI

SMILES | IC50 [µM]
CS(=O)(=O)N1CCc2c(c(-c3ccc(Cl)c(CNC(=O)c4ccccc4)c3)nn2CCCN2CCCC2)C1 [Example 2, N-{2-Chloro-5-[5-methanesulfonyl-1-(3-pyrrolidin-1-yl-propyl)-4,5,6,7-tetrahydro-1H-pyrazolo[4,3-c]pyridin-3-yl]-benzyl}-benzamide] | 0.32
CS(=O)(=O)N1CCc2c(c(-c3ccc(C(F)(F)F)c(CNC(=O)Oc4ccccc4)c3)nn2CC(O)CN2CCC3(CCNC3=O)CC2)C1 (centres unmarked) [Example 149, (5-{1-[2-Hydroxy-3-(1-oxo-2,8-diaza-spiro[4.5]dec-8-yl)-propyl]-5-methanesulfonyl-4,5,6,7-tetrahydro-1H-pyrazolo[4,3-c]pyridin-3-yl}-2-trifluoromethyl-benzyl)-carbamic acid phenyl ester] | 0.22

Same assay, conditions: average of results obtained; substrate Z-Valine-Valine-Arginine-AMC 10 μM, pH 5.0; read-out: CatS IC50

SMILES | IC50 [µM]
CC1CCCN1CC(O)Cn1nc(-c2ccc(C(F)(F)F)c(CNC(=O)c3ccc(F)cc3)c2)c2c1CCN(S(C)(=O)=O)C2 (centres unmarked) [Example 100, 4-Fluoro-N-(5-{1-[2-hydroxy-3-(2-methyl-pyrrolidin-1-yl)-propyl]-5-methanesulfonyl-4,5,6,7-tetrahydro-1H-pyrazolo[4,3-c]pyridin-3-yl}-2-trifluoromethyl-benzyl)-benzamide] | 0.33
NC(=O)N1CCc2c(c(-c3ccc(C(F)(F)F)c(CNC(=O)c4ccc(F)cc4)c3)nn2CC(O)CN2CCC3(CCNC3=O)CC2)C1 (centres unmarked) [Example 9, 3-{3-[(4-Fluoro-benzoylamino)-methyl]-4-trifluoromethyl-phenyl}-1-[2-hydroxy-3-(1-oxo-2,8-diaza-spiro[4.5]dec-8-yl)-propyl]-1,4,6,7-tetrahydro-pyrazolo[4,3-c]pyridine-5-carboxylic acid amide] | 0.04
CS(=O)(=O)N1CCc2c(c(-c3ccc(Cl)c(CNC(=O)c4ccc(Cl)c(Cl)c4)c3)nn2CCCN2CCCC2)C1 [Example 87, 3,4-Dichloro-N-{2-chloro-5-[5-methanesulfonyl-1-(3-pyrrolidin-1-yl-propyl)-4,5,6,7-tetrahydro-1H-pyrazolo[4,3-c]pyridin-3-yl]-benzyl}-benzamide] | 1.02
CS(=O)(=O)N1CCc2c(c(-c3ccc(Cl)c(CNC(=O)c4ccc(F)cc4)c3)nn2CC(O)CN2CCC(N)CC2)C1 (centres unmarked) [Example 83, N-(5-{1-[3-(4-Amino-piperidin-1-yl)-2-hydroxy-propyl]-5-methanesulfonyl-4,5,6,7-tetrahydro-1H-pyrazolo[4,3-c]pyridin-3-yl}-2-chloro-benzyl)-4-fluoro-benzamide] | 0.27
CC(=O)NC1CCN(CC(Cn2nc(-c3ccc(Cl)c(CNC(=O)c4ccc(F)cc4)c3)c3c2CCN(S(C)(=O)=O)C3)OC(C)=O)CC1 (centres unmarked) [Example 80, Acetic acid 1-(4-acetylamino-piperidin-1-ylmethyl)-2-(3-{4-chloro-3-[(4-fluoro-benzoylamino)-methyl]-phenyl}-5-methanesulfonyl-4,5,6,7-tetrahydro-pyrazolo[4,3-c]pyridin-1-yl)-ethyl ester] | 0.1
CS(=O)(=O)N1CCc2c(c(-c3ccc(Cl)c(CNC(=O)c4ccccc4)c3)nn2CC(O)CN2CCCC2)C1 (centres unmarked) [Example 69, N-{2-Chloro-5-[1-(2-hydroxy-3-pyrrolidin-1-yl-propyl)-5-methanesulfonyl-4,5,6,7-tetrahydro-1H-pyrazolo[4,3-c]pyridin-3-yl]-benzyl}-benzamide] | 0.5
CS(=O)(=O)N1CCc2c(c(-c3ccc(C(F)(F)F)c(CNC(=O)c4ccc(F)c(F)c4)c3)nn2CC(O)CN2CCCC2)C1 (centres unmarked) [Example 60, 3,4-Difluoro-N-{5-[1-(2-hydroxy-3-pyrrolidin-1-yl-propyl)-5-methanesulfonyl-4,5,6,7-tetrahydro-1H-pyrazolo[4,3-c]pyridin-3-yl]-2-trifluoromethyl-benzyl}-benzamide] | 0.21
CS(=O)(=O)N1CCc2c(c(-c3ccc(C(F)(F)F)c(CNC(=O)c4ccc(F)cc4)c3)nn2CC(O)CN2CC[C@H](CO)C2)C1 (stereo partly drawn) [Example 94, (S)-4-Fluoro-N-(5-{1-[2-hydroxy-3-(3-hydroxymethyl-pyrrolidin-1-yl)-propyl]-5-methanesulfonyl-4,5,6,7-tetrahydro-1H-pyrazolo[4,3-c]pyridin-3-yl}-2-trifluoromethyl-benzyl)-benzamide] | 0.18
CS(=O)(=O)N1CCc2c(c(-c3ccc(C(F)(F)F)c(CNc4nc5ccccc5o4)c3)nn2CC(O)CN2CCCC2)C1 (centres unmarked) [Example 68, 1-{3-[3-(Benzooxazol-2-ylaminomethyl)-4-trifluoromethyl-phenyl]-5-methanesulfonyl-4,5,6,7-tetrahydro-pyrazolo[4,3-c]pyridin-1-yl}-3-pyrrolidin-1-yl-propan-2-ol] | 0.75
CS(=O)(=O)N1CCc2c(c(-c3ccc(C(F)(F)F)c(CNC(=O)c4ccc(F)cc4)c3)nn2CC(O)CN2CCC(CO)CC2)C1 (centres unmarked) [Example 89, 4-Fluoro-N-(5-{1-[2-hydroxy-3-(4-hydroxymethyl-piperidin-1-yl)-propyl]-5-methanesulfonyl-4,5,6,7-tetrahydro-1H-pyrazolo[4,3-c]pyridin-3-yl}-2-trifluoromethyl-benzyl)-benzamide] | 0.09
O=C(NCc1cc(-c2nn(CC(O)CN3CCC4(CCNC4=O)CC3)c3c2CN(C(=O)CO)CC3)ccc1C(F)(F)F)c1ccc(F)cc1 (centres unmarked) [Example 8, 4-Fluoro-N-(5-{5-(2-hydroxy-acetyl)-1-[2-hydroxy-3-(1-oxo-2,8-diazaspiro[4.5]dec-8-yl)-propyl]-4,5,6,7-tetrahydro-1H-pyrazolo[4,3-c]pyridin-3-yl}-2-trifluoromethyl-benzyl)-benzamide] | 0.02

Continued, values first:

IC50 [µM] | SMILES
0.38 | CC(=O)NC1CCN(CC(O)Cn2nc(-c3ccc(C(F)(F)F)c(CNC(=O)CC(C)C)c3)c3c2CCN(S(C)(=O)=O)C3)C1 (centres unmarked) [Example 278, N-(5-{1-[3-(3-Acetylamino-pyrrolidin-1-yl)-2-hydroxy-propyl]-5-methanesulfonyl-4,5,6,7-tetrahydro-1H-pyrazolo[4,3-c]pyridin-3-yl}-2-trifluoromethyl-benzyl)-3-methyl-butyramide]
0.46 | CS(=O)(=O)N1CCc2c(c(-c3ccc(C(F)(F)F)c(CNC(=O)c4cccc(Cl)c4)c3)nn2CC(O)CN2CCCC2)C1 (centres unmarked) [Example 166, 3-Chloro-N-{5-[1-(2-hydroxy-3-pyrrolidin-1-yl-propyl)-5-methanesulfonyl-4,5,6,7-tetrahydro-1H-pyrazolo[4,3-c]pyridin-3-yl]-2-trifluoromethyl-benzyl}-benzamide]
0.65 | CS(=O)(=O)N1CCc2c(c(-c3ccc(Cl)c(CNC(=O)c4ccccc4)c3)nn2CC(O)CN2CCOCC2)C1 (centres unmarked) [Example 220, N-{2-Chloro-5-[1-(2-hydroxy-3-morpholin-4-yl-propyl)-5-methanesulfonyl-4,5,6,7-tetrahydro-1H-pyrazolo[4,3-c]pyridin-3-yl]-benzyl}-benzamide]
16.5 | CNC(=O)CCc1cc(-c2nn(CCCN3CCOCC3)c3c2CN(S(C)(=O)=O)CC3)ccc1Cl [Example 294, 3-{2-Chloro-5-[5-methanesulfonyl-1-(3-morpholin-4-yl-propyl)-4,5,6,7-tetrahydro-1H-pyrazolo[4,3-c]pyridin-3-yl]-phenyl}-N-methyl-propionamide]
0.24 | CC(=O)N(C)C1CCN(CC(O)Cn2nc(-c3ccc(C(F)(F)F)c(CNC(=O)CC(C)C)c3)c3c2CCN(S(C)(=O)=O)C3)C1 (centres unmarked) [Example 279, N-[5-(1-{3-[3-(Acetyl-methyl-amino)-pyrrolidin-1-yl]-2-hydroxy-propyl}-5-methanesulfonyl-4,5,6,7-tetrahydro-1H-pyrazolo[4,3-c]pyridin-3-yl)-2-trifluoromethyl-benzyl]-3-methyl-butyramide]
0.43 | CC(C)CC(=O)NCc1cc(-c2nn(CC(O)CN3CCC(O)C3)c3c2CN(S(C)(=O)=O)CC3)ccc1C(F)(F)F (centres unmarked) [Example 246, N-(5-{1-[2-Hydroxy-3-(3-hydroxy-pyrrolidin-1-yl)-propyl]-5-methanesulfonyl-4,5,6,7-tetrahydro-1H-pyrazolo[4,3-c]pyridin-3-yl}-2-trifluoromethyl-benzyl)-3-methyl-butyramide]
0.24 | CS(=O)(=O)N1CCc2c(c(-c3ccc(C(F)(F)F)c(CNC(=O)c4ccccc4O)c3)nn2CCCN2CCC3(CCNC3=O)CC2)C1 [Example 150, 2-Hydroxy-N-(5-{5-methanesulfonyl-1-[3-(1-oxo-2,8-diaza-spiro[4.5]dec-8-yl)-propyl]-4,5,6,7-tetrahydro-1H-pyrazolo[4,3-c]pyridin-3-yl}-2-trifluoromethyl-benzyl)-benzamide]
0.03 | CC(C)=CC(=O)NCc1cc(-c2nn(CC(O)CN3CCC(NS(C)(=O)=O)CC3)c3c2CN(S(C)(=O)=O)CC3)ccc1C(F)(F)F (centres unmarked) [Example 269, 3-Methyl-but-2-enoic acid 5-{1-[2-hydroxy-3-(4-methanesulfonylamino-piperidin-1-yl)-propyl]-5-methanesulfonyl-4,5,6,7-tetrahydro-1H-pyrazolo[4,3-c]pyridin-3-yl}-2-trifluoromethyl-benzylamide]
4.85 | CN(C)C(=O)CCc1cc(-c2nn(CCCN3CCOCC3)c3c2CN(S(C)(=O)=O)CC3)ccc1Cl [Example 295, 3-{2-Chloro-5-[5-methanesulfonyl-1-(3-morpholin-4-yl-propyl)-4,5,6,7-tetrahydro-1H-pyrazolo[4,3-c]pyridin-3-yl]-phenyl}-N,N-dimethyl-propionamide]
0.67 | C/N=c1/ccccn1CC(O)Cn1nc(-c2ccc(Cl)c(CNC(=O)c3ccc(F)cc3)c2)c2c1CCN(S(C)(=O)=O)C2 (centres unmarked) [Example 221, N-(2-Chloro-5-{1-[2-hydroxy-3-(2-methylimino-2H-pyridin-1-yl)-propyl]-5-methanesulfonyl-4,5,6,7-tetrahydro-1H-pyrazolo[4,3-c]pyridin-3-yl}-benzyl)-4-fluoro-benzamide]
